Broadly, the EC50 is the concentration giving half of the maximal effect. The low end stands for higher potency in that assay, the high end for lower potency in that assay. For orientation: Emax means the greatest response seen or fitted, relative to the assay's reference.

Test [1] has as its target T1, 5-HT1F (Homo sapiens, UniProt P30939).
T1 construct: expressed in transfected cells; host or cells: HEK-293
T1 sequence (P30939 1-366): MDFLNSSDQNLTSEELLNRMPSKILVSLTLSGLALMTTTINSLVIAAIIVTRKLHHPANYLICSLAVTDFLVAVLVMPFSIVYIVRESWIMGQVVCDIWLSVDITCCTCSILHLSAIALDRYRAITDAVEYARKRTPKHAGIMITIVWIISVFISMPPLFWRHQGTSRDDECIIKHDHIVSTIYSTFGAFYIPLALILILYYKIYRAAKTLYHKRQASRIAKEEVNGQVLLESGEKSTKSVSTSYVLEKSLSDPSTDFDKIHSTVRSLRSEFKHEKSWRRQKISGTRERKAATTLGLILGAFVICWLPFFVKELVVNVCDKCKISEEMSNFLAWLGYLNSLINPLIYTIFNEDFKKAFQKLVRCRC
Put plainly: Functional assay (cAMP). It counts as cell-based. On the procedure: Neuro-receptor binding and functional effects of the “E559 polymorph” was examined by analyzing binding affinity [Ki (nM)], functional agonist activity [EC50 (nM)], and functional antagonist activity [IC50 (nM)] against a panel of key receptors in neurophysiological disorders. Binding and functional assays were performed at “E559 polymorph” concentrations of 0.0003, 0.003, 0.01, 0.03, 0.1, 0.3, 1, and 10 μM. In binding assays, cell membrane homogenates, expressing each receptor target, were incubated with the corresponding radio-ligand in absence or presence of several concentration of the “E559 polymorph” compound. The measurement of binding affinity of the “E559 polymorph” is represented in TABLE XIII by Ki (nM) which was calculated as percent inhibition of the binding of a radioactively labeled reference ligand at each receptor. In functional assays the HEK-293 cells expressing each receptor target were suspended in buffer and distribute in microplates and incubated for 30 minutes at room temperature or 37° C. in the presence of buffer alone (basal control), the reference agonist or antagonist, or the “E559 polymorph. Following incubation, the cells were lysed and the appropriate fluorescent probe (Ca2+ flux, cAMP, or IP1) were added for 60 minutes to measure the fluorescence transfer at the appropriate wavelength using a microplate reader. The cellular agonist effect (EC50) was calculated as a percent of control response to a known reference agonist and the cellular antagonist effect (IC50) was calculated as a percent inhibition of control reference agonist response for each receptor.
The functional agonist activity [EC50 (nM), Emax], and functional antagonist activity [IC50 (nM)] of the 5R:8S stereoisomer of the “E559 polymorph” (5R:8S E558) was compared with the “E559 polymorph” (a 5R:8R stereoisomer) at selected serotonin receptors. The assays were performed as described in Example 6.

Test [2] addresses T2, hERG channel (Homo sapiens, UniProt Q12809).
T2 construct: expressed in transfected cells; host or cells: CHO-K1
Briefly: Cell-based hERG antagonist assay, CHO-K1 cells, tail current. On the procedure:
The human […] (hERG) channel, is a potassium channel whose inhibition is related to cardiac arrhythmias (Abbott et al., Cell, 1999, V97(2); p175-187). The effect of the “E559 polymorph” on the hERG channel was performed in a cell-based hERG antagonist assay. In brief, CHO-K1 cells were stably transfected with human hERG cDNA and allowed to achieve whole cell configuration in culture. Cells were held at −80 mV and a 500 ms pulse to −40 mV is delivered to measure the leaking current, which is subtracted from the tail current on-line. Then the cell is depolarized to +40 mV for 500 ms and then to −80 mV over a 100 ms ramp to elicit the hERG tail current. This paradigm is delivered once every 8 s to monitor the current amplitude. The assay is conducted at room temperature. The “E559 polymorph” is then applied to cells from low to high concentrations (0.0003, 0.003, 0.01, 0.03, 0.1, 0.3, 1, 10, 30, and 100 μM) sequentially for 5 minutes. Astermizole is used at multiple concentrations as a reference compound to calculate the percent inhibition of hERG channel by the “polymorph E559”.
Background: hERG is a cardiac potassium channel; its block is linked to QT prolongation.

Test [3] relates to C57BL/6J mice. Put plainly: Chronic variable stress (CVS) mouse model, open field test and splash test. It counts as in vivo. The note with it: for CVS induced decrease of time in center of open field: female mice. On the procedure: The “polymorph HT compound” (from Example 1) was tested for its anti-depression/anxiety activity in the chronic variable stress (CVS) mouse model as assessed by a self-grooming splash test and an open field test (OFT) [Strekalova et al., Psychopharmacology (Berl). 2022, 239(3):663-693; Willner, P. Neurobiol Stress, 2017, 6:78-93]. In brief, C57BL/6J mice were subjected to a CVS protocol, consisting of 2 stressors per day for 35 days. Naive mice (not exposed to CVS) are used as a control for CVS-induced depression activity. Following the 35 days CVS, mice were treated with the “E559 polymorph” (FIG. 23) via intraperitoneal injection (IP) as follows: single dose after the last day of CVS (3 mg/kg) or 4 doses (1 mg/kg) applied every 48 hours starting on day 28 of CVS. Saline was used as the vehicle control. The splash test and OFT were performed as previously described in (Aguilar-Valles et al., Nature, 2021, 590, p315-319). […] FIG. 23B represents distance travelled in the open field by female mice treated with E559 polymorph. FIG. 23C represents time spend in the center of the open field of mice in FIG. 23B. […] Horizontal lines represent the mean±standard error of the mean (S.E.M.) and asterisks indicate statistical significances.

For test [4], the system named is stress naive mice. Briefly: Forced swim test (FST), stress naive mice. It counts as in vivo, mouse. On the procedure:
In brief, stress naive mice were treated (IP injection) with either saline (control) or single dose of the “E559 polymorph” at 0.3, 1, or 3 mg/kg dose levels and were evaluated 24 hours (OFT) and […] after treatment. The OFT was performed described in Example 13. The FST was performed as previously described in (Aguilar-Valles et al., Nature, 2021, 590, p315-319). Briefly FST was performed 24-hour post treatment by placing the mice (one by one) in a 4-liter wide-mouthed flask of 35° C. water. Mice activities were recorded for 6 minutes and assessed for total time the animal remains immobile, a sign of depressive-like behavior. FIG. 25A depicts the study design where female/male mice (n=10/group/sex) were treated by IP injection with the “E559 polymorph” or vehicle (saline) followed by open field and force swim test 24 hours post treatment. FIGS. 25B and 25E represent the total distance travelled in the open field test 24 hours after vehicle or the “E559 polymorph” in female and male mice, respectively. FIGS. 25C and 25F represent the time in the center of the open field by female and male mice, respectively. FIGS. 25D and 25G represent the immobility time during the last 4 minutes of the forced swim test in female and male mice, respectively. Horizontal lines represent the mean±standard error of the mean (S.E.M.) and asterisks indicate statistical significances.

T2 sequence (Q12809 whole entry): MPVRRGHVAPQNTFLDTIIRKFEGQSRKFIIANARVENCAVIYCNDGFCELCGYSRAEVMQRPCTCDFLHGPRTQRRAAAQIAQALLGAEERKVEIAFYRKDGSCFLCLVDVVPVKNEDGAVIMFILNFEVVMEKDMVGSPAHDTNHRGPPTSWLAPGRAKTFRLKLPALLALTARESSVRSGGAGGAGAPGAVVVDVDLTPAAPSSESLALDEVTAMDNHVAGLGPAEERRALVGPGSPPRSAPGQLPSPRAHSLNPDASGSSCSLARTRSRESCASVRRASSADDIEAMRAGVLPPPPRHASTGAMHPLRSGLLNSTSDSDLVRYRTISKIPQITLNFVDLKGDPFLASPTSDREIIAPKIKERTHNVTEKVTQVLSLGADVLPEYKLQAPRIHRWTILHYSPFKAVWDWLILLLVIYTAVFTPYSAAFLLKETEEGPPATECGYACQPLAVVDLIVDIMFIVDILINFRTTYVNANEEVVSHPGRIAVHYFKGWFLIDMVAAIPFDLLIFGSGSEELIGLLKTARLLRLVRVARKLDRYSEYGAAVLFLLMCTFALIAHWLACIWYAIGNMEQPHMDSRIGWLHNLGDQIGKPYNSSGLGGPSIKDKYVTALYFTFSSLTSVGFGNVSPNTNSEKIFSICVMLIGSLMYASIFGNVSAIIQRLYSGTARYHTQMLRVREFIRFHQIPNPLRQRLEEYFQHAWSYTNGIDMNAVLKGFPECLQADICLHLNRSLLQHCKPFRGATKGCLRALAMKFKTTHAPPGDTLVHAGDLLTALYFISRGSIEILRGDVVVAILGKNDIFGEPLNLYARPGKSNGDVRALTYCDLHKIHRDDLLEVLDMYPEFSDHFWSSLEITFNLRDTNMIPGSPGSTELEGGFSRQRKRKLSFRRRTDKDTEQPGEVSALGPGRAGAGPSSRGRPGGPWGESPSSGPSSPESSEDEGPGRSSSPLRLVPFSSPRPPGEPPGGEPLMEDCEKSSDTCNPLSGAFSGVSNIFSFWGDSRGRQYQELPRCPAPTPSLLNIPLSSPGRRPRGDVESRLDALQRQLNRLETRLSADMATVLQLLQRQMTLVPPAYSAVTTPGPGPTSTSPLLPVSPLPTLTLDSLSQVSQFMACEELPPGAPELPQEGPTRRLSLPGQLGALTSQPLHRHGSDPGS

`CCN(CC)C(=O)[C@@H]1C=C2c3cccc4[nH]c(Br)c(c34)C[C@H]2N(C)C1` [E559, (5R, 8R)-2-Bromo-9,10-didehydro-N,N-diethyl-6-methylergoline-8-carboxamide hemi-D-tartrate]: the values for the 50% effective concentration (EC50) in test [1] and in test [2] were 0.0138 µM and 31.6 µM, respectively. In addition, the Emax in test [1] (cAMP, ligand 5-HT, read-out: Functional Assay (agonist) Emax) worked out at 92.6%. In addition, the “CVS effect on time in center in OFT, 28 days after the last treatment” value in test [3] (4×1 mg/kg) is listed as “remained reversed”. Further, the “locomotion (total distance travelled) in open field, CVS mice” value in test [3] (4×1 mg/kg) was “without affecting locomotion”. In test [3] (female CVS mice), the “time spent self-grooming in the splash test” value is “partially reversed this CVS-induced effect”. Moreover, the “CVS induced decrease of time in center of open field” value is listed as “fully reversed to the levels seen in the control” in test [3] (IP 4 doses of 1 mg/kg every 48 hours) and “partially restored the effect of CVS” in test [3] (IP single dose of 3 mg/kg). Moreover, the decrease in immobility was found to be 35.18 ± 10.03 s in test [4] (female mice, IP 1 mg/kg); 27.27 ± 8.226 s in test [4] (male mice, IP 1 mg/kg); 31.36 ± 8.226 s in test [4] (male mice, IP 3 mg/kg).

Source of the values: patent US12331051B2 (priority 2021, dated 2025).
